Assay type in all cases: functional
Test [1] can be described thus: Growth inhibition against ovarian cancer cell line IGROV1. The settings on record: Homo sapiens, IGROV-1.
For test [2], the system named is OVCAR-5. Nature of the test: Growth inhibition against ovarian cancer cell line OVCAR-5. The settings on record: Homo sapiens.
Test [3] deals with MCF7. Description: Growth inhibition against breast cancer line MCF-7. The settings on record: Homo sapiens.
Test [4] relates to NCI-H226. Description: Growth inhibition against non-small cell lung cancer cell line […]. The following applies: Homo sapiens.
In test [5] the test system is OVCAR-4. Nature of the test: Growth inhibition against ovarian cancer cell line OVCAR-4. The following applies: Homo sapiens.
The subject of test [6] is NCI-H460. Nature of the test: Growth inhibition against non-small cell lung cancer cell line NCI-H460. The following applies: Homo sapiens.
Test [7] is described as follows: Mean GI50 values are recorded over the NCI 60-cell panel. The following applies: Homo sapiens.
Test [8] deals with T47D. Nature of the test: Growth inhibition against breast cancer line T-47-D. The settings on record: Homo sapiens.
The subject of test [9] is HCC 2998. Description: Growth inhibition against colon cancer cell line HCC2998. The settings on record: Homo sapiens.
Test [10] can be described thus: Growth inhibition against cancer cell line TH-10. The settings on record: Homo sapiens, Cancer cell lines.

Where only a bound is given, the exact number is not on record here.

In the case of `Nc1ccc(-c2nc3ccccc3s2)cc1C(F)(F)F`, the GI50 – broadly, the concentration giving 50% growth inhibition – in test [1] amounted to 2600 nM; in [2], 17400 nM; in test [3], 1500 nM; in test [4], 15100 nM; in test [5] it was 15800 nM; in [6] it was 14500 nM. Besides, the GI50 came out at 14100 nM in test [7], 5400 nM in [8], 10700 nM in [9] and 13200 nM in test [10].
As for `Nc1ccc(-c2nc3cc(F)ccc3s2)cc1I`, the GI50 was below 10 nM in test [1]; 280 nM in test [2]; below 10 nM in test [3]; 10200 nM in [4]; below 10 nM in test [5]; 7600 nM in test [7]. The GI50 is 130 nM in test [8], below 10 nM in [9] and 70 nM in test [10].
For `Nc1ccc(-c2nc3ccccc3s2)cc1F`, the GI50 was below 10 nM in test [1]; below 10 nM in test [2]; below 10 nM in test [3]; below 10 nM in [4]; 18600 nM in test [5]; below 10 nM in test [6]. Further, the GI50 in test [7] is 14500 nM; in [8], below 10 nM; in test [9], 100 nM; in test [10], below 10 nM.
With `Cc1cc(-c2nc3ccc(F)cc3s2)ccc1N`, the GI50 in test [1] was 1300 nM; in test [2], above 100000 nM; in test [3], below 10 nM; in [4], 60300 nM; in test [5], 10 nM; in test [6], 100 nM. Besides, the GI50 in test [7] is 47900 nM; in test [9] it was 34700 nM; in test [10], below 10 nM.
Regarding `Cc1cc(-c2nc3cc(F)c(F)cc3s2)ccc1N`, the GI50 in test [1] is below 10 nM; in test [2] it was above 100000 nM; in test [3] it was below 10 nM; in [5], 60300 nM; in test [6], above 100000 nM; in test [7] it was 67600 nM. Besides, the GI50 in test [8] was below 10 nM; in test [9], above 100000 nM; in test [10], below 10 nM.
`Nc1ccc(-c2nc3ccc(F)cc3s2)cc1I`: the GI50 in test [1] was below 10 nM; in [2], 100 nM; in test [3] it was below 10 nM; in [4], 70 nM; in test [5] it was 30 nM; in [6], above 100000 nM. In addition, the GI50 in test [7] is 33900 nM; in test [8], below 10 nM; in [9] it was 320 nM; in test [10], below 10 nM.
For the compound `Cc1cc(-c2nc3c(F)cccc3s2)ccc1N`, the GI50 is 22900 nM in test [1]; 1700 nM in [2]; below 10 nM in test [3]; 5500 nM in test [4]; 20900 nM in test [5]; 1000 nM in test [6]. Moreover, the values for the GI50 in test [7], in test [8] and in [9] were 34600 nM, below 10 nM and above 100000 nM, respectively.
For `Nc1ccc(-c2nc3cc(F)ccc3s2)cc1Cl`, the GI50 was below 10 nM in test [1]; below 10 nM in test [2]; below 10 nM in test [3]; 30 nM in test [4]; 320 nM in [5]; 40 nM in test [6]. Further, the results for the GI50 in test [7] and in test [8] were 5800 nM and 40 nM, respectively.
In the case of `Nc1ccc(-c2nc3ccc(F)cc3s2)cc1Cl`, the GI50 in test [1] is below 10 nM; in [2] it was 70 nM; in [3] it was below 10 nM; in [4] it was 14100 nM; in test [5], 20 nM; in [6], 100 nM. For the same compound, the GI50 is 22300 nM in test [7], 90 nM in test [9] and below 10 nM in [10].
With `Nc1ccc(-c2nc3ccc(F)cc3s2)cc1`, the GI50 is 21300 nM in test [1]; 26900 nM in [2]; below 10 nM in [3]; 46800 nM in test [4]; 22900 nM in test [5]; 24500 nM in test [6]. In addition, the GI50 stood at 30200 nM in test [7], 17800 nM in test [9] and 26300 nM in test [10].
Take `Cc1cc(-c2nc3cc(F)ccc3s2)ccc1N`: the GI50 was below 10 nM in [1]; below 10 nM in [2]; below 10 nM in [3]; 1300 nM in [4]; below 10 nM in test [5]; 50 nM in test [6]. Further, the GI50 was 4400 nM in [7], below 10 nM in [8] and below 10 nM in test [10].
For the compound `Cc1cc(-c2nc3ccc(O)cc3s2)ccc1N`, the GI50 in test [1] was 47900 nM; in test [2] it was 83200 nM; in test [3] it was 56200 nM; in test [4] it was 60300 nM; in [5] it was 37200 nM; in test [7], 41700 nM. Further, the GI50 in test [8] was 22400 nM; in test [9], above 100000 nM; in test [10], 77600 nM.
For the compound `Cc1cc(-c2nc3ccccc3s2)ccc1N`, the concentration for 50% growth inhibition (GI50) is below 10 nM in test [1]; 1900 nM in test [2]; below 10 nM in test [3]; 18600 nM in test [4]; 1100 nM in [5]; 29500 nM in test [6]. Besides, the results for the GI50 in test [7], in test [8] and in test [10] were 12900 nM, 20 nM and below 10 nM, respectively.
On to `Nc1ccc(-c2nc3cc(F)ccc3s2)cc1`, for which the GI50 in [1] was 11500 nM; in [2] it was 29500 nM; in [3], below 10 nM; in [4] it was below 10 nM; in test [5], 13500 nM; in test [6], 870 nM. Besides, the GI50 in [7] was determined as 23400 nM; in test [8] it was 260 nM; in test [10], 11500 nM.
Consider `Nc1ccc(-c2nc3cc(F)ccc3s2)cc1Br`, for which the GI50 in test [1] is below 10 nM; in test [2] it was 50 nM; in test [3], below 10 nM; in test [4], 130 nM; in test [5], 24000 nM; in [6], 110 nM. Moreover, the GI50 was 5100 nM in test [7], 20 nM in test [8], below 10 nM in test [9] and 50 nM in test [10].
Take `Cc1cc(-c2nc3cccc(F)c3s2)ccc1N`: the GI50 in test [1] is 70 nM; in [2], 1300 nM; in [3], below 10 nM; in test [5], 7400 nM; in test [6] it was 4200 nM; in [7], 20000 nM. Moreover, the concentration for 50% growth inhibition (GI50) worked out at 20 nM in test [8], 13800 nM in test [9] and 40 nM in [10].
